This test has as its system L1210 leukemia ip in BDF1 mice, survival T/C. Kind of test: NCI In Vivo Anticancer Drug Screen. Data for tumor model L1210 Leukemia (intraperitoneal) in B6D2F1 (BDF1) mice. As to conditions: endpoint: mean survival time, higher = longer survival. Summed up: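 Mice bearing the transplanted tumor received compound or vehicle. Survival of the treated group was divided by that of the vehicle-treated control group to give the ratio.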

Setting [1] is: dose: 100.0 mg/kg/injection, schedule: Q04DX002 (ip), vehicle: saline with Tween-80.
[2] abbreviates: dose: 200.0 mg/kg/injection, schedule: Q04DX002 (ip), vehicle: saline with Tween-80.
Setting [3] is: dose: 400.0 mg/kg/injection, schedule: Q04DX002 (ip), vehicle: saline with Tween-80.
The mark [4] stands for this setting: dose: 5.0 mg/kg/injection, schedule: Q01DX001 (ip), vehicle: saline.
Setting [5] is: dose: 10.0 mg/kg/injection, schedule: Q01DX001 (ip), vehicle: saline.
Setting [6] is: dose: 15.0 mg/kg/injection, schedule: Q01DX001 (ip), vehicle: saline.
The mark [7] stands for this setting: dose: 50.0 mg/kg/injection, schedule: Q01DX009 (ip), vehicle: saline with Tween-80.
The mark [8] stands for this setting: dose: 100.0 mg/kg/injection, schedule: Q01DX009 (ip), vehicle: saline with Tween-80.
[9] abbreviates: dose: 100.0 mg/kg/injection, schedule: Q04DX003 (ip), vehicle: saline with Tween-80.
The mark [10] stands for this setting: dose: 200.0 mg/kg/injection, schedule: Q04DX003 (ip), vehicle: saline with Tween-80.
The mark [11] stands for this setting: dose: 200.0 mg/kg/injection, schedule: Q01DX009 (ip), vehicle: saline with Tween-80.
Where [12] appears, read: dose: 400.0 mg/kg/injection, schedule: Q01DX009 (ip), vehicle: saline with Tween-80.
Setting [13] is: dose: 400.0 mg/kg/injection, schedule: Q04DX003 (ip), vehicle: saline with Tween-80.
Setting [14] is: dose: 100.0 mg/kg/injection, schedule: Q01DX009 (ip), vehicle: saline.
Setting [15] is: dose: 100.0 mg/kg/injection, schedule: Q04DX003 (ip), vehicle: saline.
Where [16] appears, read: dose: 200.0 mg/kg/injection, schedule: Q04DX003 (ip), vehicle: saline.

Several values for one entry are separate records, joined by “and”; a condition that tells them apart may be missing. Equal values may be shown once. Inconclusive results and toxic doses are left out.

T/C data for 19 compounds are collected here from PubChem BioAssay AID248 (DTP/NCI, 2004).

Turning to `CCOC(=O)c1n[nH]c2ccccc12`, the T/C under setting [1] is 101 % of control, the T/C under setting [2] is 106 % of control and the T/C under setting [3] is 97 % of control.

Consider `Clc1cc(N2CC2)nc(N2CC2)n1`, for which the T/C by setting is: (dose: 1.56 mg/kg/injection, schedule: Q01DX001 (ip), vehicle: saline) 92 % of control; (dose: 1.56 mg/kg/injection, schedule: Q04DX003 (ip), vehicle: saline) 110 % of control; (dose: 1.6 mg/kg/injection, schedule: Q01DX009 (ip), vehicle: carboxymethylcellulose (CMC)) 118 % of control; (dose: 2.14 mg/kg/injection, schedule: Q01DX009 (ip), vehicle: saline) 166 % of control and 184 % of control; (dose: 2.5 mg/kg/injection, schedule: Q01DX001 (ip), vehicle: carboxymethylcellulose (CMC)) 111 % of control; (dose: 2.7 mg/kg/injection, schedule: Q01DX009 (ip), vehicle: carboxymethylcellulose (CMC)) 120 % of control. Moreover, the T/C is, setting by setting: (dose: 3.12 mg/kg/injection, schedule: Q01DX001 (ip), vehicle: saline) 93 % of control; (dose: 3.25 mg/kg/injection, schedule: Q01DX009 (ip), vehicle: saline with Tween-80) 185 % of control; (dose: 3.25 mg/kg/injection, schedule: Q01DX009 (ip), vehicle: saline) 177 % of control and 226 % of control; (dose: 4.12 mg/kg/injection, schedule: Q04DX003 (ip), vehicle: saline) 156 % of control; (dose: 4.44 mg/kg/injection, schedule: Q01DX001 (ip), vehicle: carboxymethylcellulose (CMC)) 115 % of control; (dose: 4.87 mg/kg/injection, schedule: Q01DX009 (ip), vehicle: saline) 103 % of control. Further, the T/C (dose: 5.0 mg/kg/injection, schedule: Q01DX001 (ip), vehicle: carboxymethylcellulose (CMC)) is 120 % of control; the T/C under setting [4] was 118 % of control; the T/C (dose: 6.25 mg/kg/injection, schedule: Q01DX001 (ip), vehicle: saline) is 98 % of control; the T/C (dose: 6.25 mg/kg/injection, schedule: Q04DX003 (ip), vehicle: saline) was 166 % of control and 173 % of control and 202 % of control; the T/C (dose: 6.67 mg/kg/injection, schedule: Q01DX001 (ip), vehicle: carboxymethylcellulose (CMC)) is 121 % of control; the T/C (dose: 7.5 mg/kg/injection, schedule: Q01DX009 (ip), vehicle: carboxymethylcellulose (CMC)) was 106 % of control. In addition, the T/C by setting is: (dose: 10.0 mg/kg/injection, schedule: Q01DX001 (ip), vehicle: carboxymethylcellulose (CMC)) 154 % of control; under setting [5], 156 % of control and 160 % of control; under setting [6], 160 % of control; (dose: 20.0 mg/kg/injection, schedule: Q01DX001 (ip), vehicle: carboxymethylcellulose (CMC)) 104 % of control.

As for `C/C(=N/OC(=O)N(C)C)c1ccc(Cl)cc1Cl`, the T/C (dose: 100.0 mg/kg/injection, schedule: Q01DX001 (ip), vehicle: other) was 107 % of control.

In the case of `Nc1ccn(CC(=O)c2cccs2)c(=O)n1`, the T/C by setting is: (dose: 25.0 mg/kg/injection, schedule: Q01DX009 (ip), vehicle: saline with Tween-80) 93 % of control; under setting [7], 98 % of control; under setting [8], 100 % of control and 103 % of control; under setting [9], 94 % of control; under setting [10], 110 % of control.

On to `CCC1C(=O)OCc2c1cc1n(c2=O)Cc2cc3ccccc3nc2-1` (stereo not given), for which the T/C reads like this: (dose: 2.5 mg/kg/injection, schedule: Q01DX001 (ip), vehicle: saline) 102 % of control; under setting [4], 107 % of control; under setting [5], 102 % of control; under setting [6], 118 % of control.

For the compound `CCOC(=O)C(C)C1(c2ccccc2)OC(=O)c2ccccc21` (stereo not given), the T/C is 108 % of control under setting [1], 112 % of control under setting [2] and 97 % of control under setting [3].

On to `Cc1cc(Cl)ccc1NS(=O)(=O)c1ccc(Br)cc1`, for which the T/C under setting [8] is 97 % of control; the T/C under setting [9] is 102 % of control; the T/C under setting [11] was 98 % of control; the T/C under setting [10] is 100 % of control; the T/C under setting [12] was 93 % of control; the T/C under setting [13] was 96 % of control.

For `C/C(=C\COc1ccc2ccc(=O)oc2c1)C1=CC(=O)C(C)(C)O1`, the T/C was 96 % of control under setting [8]; 96 % of control under setting [9]; 94 % of control under setting [11]; 91 % of control under setting [10]; 97 % of control under setting [12]; 94 % of control under setting [13].

In the case of `O=C1C=C(c2ccccc2)C(c2ccccc2)C1O` (stereo not given), the T/C was 102 % of control (dose: 75.0 mg/kg/injection, schedule: Q01DX001 (ip), vehicle: other) and 97 % of control (dose: 150.0 mg/kg/injection, schedule: Q01DX001 (ip), vehicle: other).

`NC(=O)c1ccc(OCc2cnc3nc(N)nc(N)c3n2)cc1`: the T/C is, setting by setting: (dose: 20.0 mg/kg/injection, schedule: Q01DX009 (ip), vehicle: Klucel (hydroxypropylcellulose) (HPC)) 98 % of control; (dose: 40.0 mg/kg/injection, schedule: Q01DX009 (ip), vehicle: Klucel (hydroxypropylcellulose) (HPC)) 95 % of control; (dose: 80.0 mg/kg/injection, schedule: Q01DX009 (ip), vehicle: Klucel (hydroxypropylcellulose) (HPC)) 109 % of control.

On to `c1ccc(C(CCCCC(c2ccccc2)c2ccccc2)c2ccccc2)cc1`, for which the T/C (dose: 75.0 mg/kg/injection, schedule: Q01DX001 (ip), vehicle: saline) was 94 % of control; the T/C (dose: 150.0 mg/kg/injection, schedule: Q01DX001 (ip), vehicle: saline) is 92 % of control; the T/C (dose: 300.0 mg/kg/injection, schedule: Q01DX001 (ip), vehicle: saline) was 93 % of control.

On to `CCNC(=O)C1C2C=CC(CC2)C1C(=O)NCC` (stereo not given), for which the T/C was 87 % of control under setting [9], 96 % of control under setting [10] and 96 % of control under setting [13].

Regarding `CC12CCC(F)(CC1)CC2=O`, the T/C reads like this: (dose: 100.0 mg/kg/injection, schedule: Q04DX002 (ip), vehicle: saline) 98 % of control; (dose: 200.0 mg/kg/injection, schedule: Q04DX002 (ip), vehicle: saline) 98 % of control; (dose: 400.0 mg/kg/injection, schedule: Q04DX002 (ip), vehicle: saline) 102 % of control.

As to `CSC(N)=Nc1cccc2c1CCCC2`, the T/C reads like this: (dose: 50.0 mg/kg/injection, schedule: Q01DX009 (ip), vehicle: saline) 98 % of control; (dose: 50.0 mg/kg/injection, schedule: Q04DX003 (ip), vehicle: saline) 102 % of control; under setting [14], 98 % of control; under setting [15], 88 % of control; under setting [16], 92 % of control.

Regarding `O=Cc1cc([N+](=O)[O-])ccc1Cl`, the T/C was 101 % of control under setting [7]; 100 % of control under setting [8]; 96 % of control under setting [9]; 95 % of control under setting [11]; 97 % of control under setting [10].

Take `O=C1C=CC2(CCC23C=CC(=O)O3)O1` (stereo not given): the T/C (dose: 13.0 mg/kg/injection, schedule: Q01DX Z (ip), vehicle: saline) was 96 % of control; the T/C (dose: 20.0 mg/kg/injection, schedule: Q01DX Z (ip), vehicle: saline) was 102 % of control; the T/C (dose: 30.0 mg/kg/injection, schedule: Q01DX Z (ip), vehicle: saline) was 104 % of control; the T/C (dose: 45.0 mg/kg/injection, schedule: Q01DX Z (ip), vehicle: saline) is 102 % of control and 109 % of control.

Consider `CCCCC/C(=C\c1ccccc1)C1OCC(CCl)O1` (stereo not given), for which the T/C (dose: 222.0 mg/kg/injection, schedule: Q01DX Z (ip), vehicle: saline) is 100 % of control; the T/C (dose: 333.0 mg/kg/injection, schedule: Q01DX Z (ip), vehicle: saline) was 100 % of control; the T/C (dose: 500.0 mg/kg/injection, schedule: Q01DX Z (ip), vehicle: saline) was 109 % of control.

Consider `COc1ccc(C(O)c2ccccn2)cc1` (stereo not given), for which the T/C runs as follows: under setting [9], 90 % of control; under setting [10], 98 % of control; under setting [13], 95 % of control.

`CCOc1ccc(=O)[nH]n1`: the T/C is 93 % of control under setting [14]; 105 % of control under setting [15]; 93 % of control (dose: 200.0 mg/kg/injection, schedule: Q01DX009 (ip), vehicle: saline); 101 % of control under setting [16]; 95 % of control (dose: 400.0 mg/kg/injection, schedule: Q01DX009 (ip), vehicle: saline); 115 % of control (dose: 400.0 mg/kg/injection, schedule: Q04DX003 (ip), vehicle: saline).
